Reference: article PMC12198407, “Preclinical and first-in-human of purinostat mesylate, a novel selective HDAC I/IIb inhibitor, in relapsed/refractory multiple myeloma and lymphoma” (Signal Transduction and Targeted Therapy, 2025)
“Also recorded” adds a separate entry of the source.

Legend:
[1] = Phase I trial NCT05526313, safety and tolerability (adverse events, CTCAE 5.0)
Solubility of the API = assay type: physicochemical
mouse B-cell lymphoma = assay: Ighmyc transgenic B-cell lymphoma model, survival; assay type: in vivo, mice
HDAC4 = HDAC4 (Homo sapiens, UniProt P56524); assay: HDAC enzyme activity in vitro; assay type: biochemical
HDAC4, sequence (P56524 whole entry): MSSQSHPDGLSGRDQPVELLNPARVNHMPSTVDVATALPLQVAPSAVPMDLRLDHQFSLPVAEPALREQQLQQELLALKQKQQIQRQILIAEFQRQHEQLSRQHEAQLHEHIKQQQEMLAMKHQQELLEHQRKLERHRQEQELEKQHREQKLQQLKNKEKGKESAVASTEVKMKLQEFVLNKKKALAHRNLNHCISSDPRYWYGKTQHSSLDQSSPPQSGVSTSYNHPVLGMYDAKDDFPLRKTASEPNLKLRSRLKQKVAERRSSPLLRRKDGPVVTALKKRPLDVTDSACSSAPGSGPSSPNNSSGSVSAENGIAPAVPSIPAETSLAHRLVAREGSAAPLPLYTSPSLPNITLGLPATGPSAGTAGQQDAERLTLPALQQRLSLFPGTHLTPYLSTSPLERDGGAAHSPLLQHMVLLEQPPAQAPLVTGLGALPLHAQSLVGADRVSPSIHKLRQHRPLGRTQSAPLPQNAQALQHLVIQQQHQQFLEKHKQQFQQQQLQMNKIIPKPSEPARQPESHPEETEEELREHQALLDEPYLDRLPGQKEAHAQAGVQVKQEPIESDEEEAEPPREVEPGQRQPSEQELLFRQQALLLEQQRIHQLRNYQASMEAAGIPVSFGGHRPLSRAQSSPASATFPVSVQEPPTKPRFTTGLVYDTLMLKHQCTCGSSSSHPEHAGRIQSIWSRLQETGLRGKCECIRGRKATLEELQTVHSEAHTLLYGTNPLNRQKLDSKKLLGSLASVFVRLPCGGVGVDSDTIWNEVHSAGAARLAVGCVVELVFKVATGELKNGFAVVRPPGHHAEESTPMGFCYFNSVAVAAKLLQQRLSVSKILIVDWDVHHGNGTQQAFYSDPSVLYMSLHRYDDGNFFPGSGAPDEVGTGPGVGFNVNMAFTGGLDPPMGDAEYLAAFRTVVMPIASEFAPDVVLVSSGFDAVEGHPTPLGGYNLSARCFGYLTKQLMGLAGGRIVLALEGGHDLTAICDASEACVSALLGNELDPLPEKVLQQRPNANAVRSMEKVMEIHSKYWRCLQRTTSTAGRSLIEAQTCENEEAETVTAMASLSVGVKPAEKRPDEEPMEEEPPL

[2] = Chronic toxicity test, 4 weeks; assay type: in vivo, rats
Protocol: In this study, the low, medium, and high dose groups were set at 3, 10, and 30 mg/kg, respectively. The blank formulation was set at low and high doses of 45 and 450 mg/kg, corresponding to the doses of hydroxypropyl beta-cyclodextrin in the low and high dose groups of injectable Purinostat Mesylate. Dosing occurred once every two days, three times a week, for a total of four weeks, with some animals undergoing a four-week recovery period after the treatment ended. The main results indicated no mortality. In the high-dose group, symptoms included sparse fur, reduced activity, and scabbing at the injection site. […] The primary toxic target organs or systems included the immune system (spleen, thymus, various lymph nodes), submandibular gland, bone marrow, testis, and epididymis.

For CN(Cc1nc2c(N3CCOCC3)nc(-c3ccc(N)cc3)nc2n1C)c1ncc(C(=O)NO)cn1.CS(=O)(=O)O [PM, 2-(((2-(4-Aminophenyl)-9-methyl-6-(4-morpholinyl)-9H-purine-8-yl)methyl)methylamino)-N-hydroxy-5-pyrimidine-carboxamide Mesylate], the “dose-limiting toxicity (DLT)” value ([1]; 1.2–15 mg/m^2) was “no dose-limiting toxicities observed; also recorded: no dose-limiting toxicity (DLT) events occurred; also recorded: no arrhythmias or DLT were observed”, the “grade 5 events” value ([1]; 29 treated patients) was “no grade 5 events reported” and the “patients with grade 3–4 TEAEs” value ([1]; 29 treated patients) was 25 (86.2%) n (%). For the same molecule, the COVID-19 ([1]; […]) was 1(3.4) n (%), the “Investigations (SOC)” value ([1]; […]) was 29(100.0) n (%) and the QRS axis abnormalities ([1]; […]) was 1(3.4) n (%). For the same molecule, the “ST segment abnormalities on ECG” value ([1]; […]) was 5(17.2) n (%), the “ST-T segment changes on ECG” value ([1]; […]) was 9(31.0) n (%) and the “T wave abnormalities on ECG” value ([1]; […]) was 9(31.0) n (%). For the same molecule, the abdominal discomfort ([1]; […]) was 1(3.4) n (%), the abdominal distension ([1]; […]) was 4(13.8) n (%) and the abdominal pain ([1]; […]) was 2(6.9) n (%). For the same molecule, the abnormal liver function ([1]; […]) was 1(3.4) n (%), the alopecia ([1]; […]) was 1(3.4) n (%) and the anemia ([1]; […]) was 20(69.0) n (%). For the same molecule, the angular cheilitis ([1]; […]) was 1(3.4) n (%), the appendicitis ([1]; […]) was 1(3.4) n (%) and the arrhythmia ([1]; […]) was 1(3.4) n (%). The arthralgia ([1]; […]) was 3(10.3) n (%), the atrial tachycardia ([1]; […]) was 1(3.4) n (%) and the backache ([1]; […]) was 1(3.4) n (%). The bacteremia ([1]; […]) was 1(3.4) n (%), the belching ([1]; […]) was 1(3.4) n (%) and the bleeding gums ([1]; […]) was 1(3.4) n (%). For the same molecule, the “blood and lymphatic system diseases (SOC)” value ([1]; […]) was 20(69.0) n (%), the chill ([1]; […]) was 1(3.4) n (%) and the conjunctival bleeding ([1]; […]) was 1(3.4) n (%). For the same molecule, the constipation ([1]; […]) was 1(3.4) n (%), the cough ([1]; […]) was 1(3.4) n (%) and the decreased blood fibrinogen ([1]; […]) was 1(3.4) n (%). For the same molecule, the decreased lymphocyte count ([1]; […]) was 16(55.2) n (%), the decreased monocyte count ([1]; […]) was 2(6.9) n (%) and the decreased neutrophil count ([1]; […]) was 25(86.2) n (%). For the same molecule, the decreased platelet count ([1]; […]) was 24(82.8) n (%), the “decreased white blood cell count” value ([1]; […]) was 24(82.8) n (%) and the diarrhea ([1]; […]) was 4(13.8) n (%). The dizziness ([1]; […]) was 13(44.8) n (%), the duodenogastric reflux ([1]; […]) was 1(3.4) n (%) and the dyspepsia ([1]; […]) was 1(3.4) n (%). For the same molecule, the dyspnea ([1]; […]) was 1(3.4) n (%), the “elevated blood creatine phosphokinase” value ([1]; […]) was 1(3.4) n (%) and the “elevated blood unconjugated bilirubin” value ([1]; […]) was 1(3.4) n (%). For the same molecule, the epigastric pain ([1]; […]) was 1(3.4) n (%), the epistaxis ([1]; […]) was 2(6.9) n (%) and the extraventricular contraction ([1]; […]) was 1(3.4) n (%). The “eye organ disease (SOC)” value ([1]; […]) was 2(6.9) n (%), the eyelid edema ([1]; […]) was 1(3.4) n (%) and the facial pain ([1]; […]) was 1(3.4) n (%). For the same molecule, the fatigue ([1]; […]) was 3(10.3) n (%), the fever ([1]; […]) was 2(6.9) n (%) and the fungal skin infection ([1]; […]) was 1(3.4) n (%). For the same molecule, the gastritis ([1]; […]) was 1(3.4) n (%), the gastroesophageal reflux disease ([1]; […]) was 2(6.9) n (%) and the gastrointestinal hemorrhage ([1]; […]) was 1(3.4) n (%). For the same molecule, the “gastrointestinal system diseases (SOC)” value ([1]; […]) was 21(72.4) n (%), the head discomfort ([1]; […]) was 1(3.4) n (%) and the headache ([1]; […]) was 14(48.3) n (%). The “heart organ diseases (SOC)” value ([1]; […]) was 13(44.8) n (%), the “heat and cold intolerance” value ([1]; […]) was 1(3.4) n (%) and the hematochezia ([1]; […]) was 1(3.4) n (%). The hematuria ([1]; […]) was 4(13.8) n (%), the hepatic failure ([1]; […]) was 2(6.9) n (%) and the “hepato-biliary diseases (SOC)” value ([1]; […]) was 3(10.3) n (%). The herpes zoster ([1]; […]) was 4(13.8) n (%), the herpesvirus infection ([1]; […]) was 1(3.4) n (%) and the “high voltage on ECG” value ([1]; […]) was 3(10.3) n (%). For the same molecule, the hypercalcemia ([1]; […]) was 1(3.4) n (%), the hyperglycemia ([1]; […]) was 7(24.1) n (%) and the hyperlipoidemia ([1]; […]) was 4(13.8) n (%). For the same molecule, the hypermagnesemia ([1]; […]) was 3(10.3) n (%), the hypertension ([1]; […]) was 2(6.9) n (%) and the hypertriglyceridemia ([1]; […]) was 2(6.9) n (%). For the same molecule, the hyperuricemia ([1]; […]) was 4(13.8) n (%), the hypoalbuminemia ([1]; […]) was 1(3.4) n (%) and the hypocalcemia ([1]; […]) was 7(24.1) n (%). The hypochloremia ([1]; […]) was 4(13.8) n (%), the hypokalemia ([1]; […]) was 11(37.9) n (%) and the hypomagnesemia ([1]; […]) was 4(13.8) n (%). The hyponatremia ([1]; […]) was 10(34.5) n (%), the hypophosphatemia ([1]; […]) was 13(44.8) n (%) and the hypotension ([1]; […]) was 2(6.9) n (%). The increased blood creatinine ([1]; […]) was 2(6.9) n (%), the increased lymphocyte count ([1]; […]) was 1(3.4) n (%) and the increased monocyte count ([1]; […]) was 13(44.8) n (%). For the same molecule, the increased serum bilirubin ([1]; […]) was 4(13.8) n (%), the “increased total bile acid” value ([1]; […]) was 1(3.4) n (%) and the increased troponin ([1]; […]) was 1(3.4) n (%). For the same molecule, the “increased urobilinogen in the urine” value ([1]; […]) was 3(10.3) n (%), the “increased γ-glutamyl transferase” value ([1]; […]) was 2(6.9) n (%) and the “infections and infestations diseases (SOC)” value ([1]; […]) was 13(44.8) n (%). For the same molecule, the infectious pneumonia ([1]; […]) was 1(3.4) n (%), the insomnia ([1]; […]) was 1(3.4) n (%) and the “kidney and urinary system diseases (SOC)” value ([1]; […]) was 6(20.7) n (%). The left ventricular dysfunction ([1]; […]) was 1(3.4) n (%), the limb pain ([1]; […]) was 2(6.9) n (%) and the loss of appetite ([1]; […]) was 2(6.9) n (%). For the same molecule, the “mental disorder (SOC)” value ([1]; […]) was 1(3.4) n (%), the “metabolic and nutritional diseases (SOC)” value ([1]; […]) was 23(79.3) n (%) and the muscle weakness ([1]; […]) was 1(3.4) n (%). The musculoskeletal discomfort ([1]; […]) was 1(3.4) n (%), the nasal congestion ([1]; […]) was 1(3.4) n (%) and the nausea ([1]; […]) was 15(51.7) n (%). For the same molecule, the oral hypoesthesia ([1]; […]) was 2(6.9) n (%), the oral mucositis ([1]; […]) was 1(3.4) n (%) and the palpitation ([1]; […]) was 4(13.8) n (%). For the same molecule, the parageusia ([1]; […]) was 1(3.4) n (%), the pericardial effusion ([1]; […]) was 1(3.4) n (%) and the periodontitis ([1]; […]) was 1(3.4) n (%). For the same molecule, the peripheral edema ([1]; […]) was 1(3.4) n (%), the petechia ([1]; […]) was 2(6.9) n (%) and the proteinuria ([1]; […]) was 1(3.4) n (%). The pruritus ([1]; […]) was 3(10.3) n (%), the pulmonary inflammation ([1]; […]) was 1(3.4) n (%) and the rash ([1]; […]) was 3(10.3) n (%). The reduced intake ([1]; […]) was 10(34.5) n (%), the renal failure ([1]; […]) was 1(3.4) n (%) and the respiratory tract infection ([1]; […]) was 1(3.4) n (%). For the same molecule, the “right bundle branch block” value ([1]; […]) was 1(3.4) n (%), the sinus bradycardia ([1]; […]) was 1(3.4) n (%) and the sinus tachycardia ([1]; […]) was 7(24.1) n (%). The “skin and subcutaneous tissue diseases (SOC)” value ([1]; […]) was 10(34.5) n (%), the skin pain ([1]; […]) was 1(3.4) n (%) and the skin xerosis ([1]; […]) was 2(6.9) n (%). For the same molecule, the soft tissue infection ([1]; […]) was 1(3.4) n (%), the supraventricular extraventricular contraction ([1]; […]) was 2(6.9) n (%) and the “systemic diseases and various reactions at the administration site (SOC)” value ([1]; […]) was 19(65.5) n (%). The tachypnea ([1]; […]) was 3(10.3) n (%), the tongue ulcer ([1]; […]) was 1(3.4) n (%) and the “upper respiratory tract bacterial infection” value ([1]; […]) was 1(3.4) n (%). The “upper respiratory tract infection” value ([1]; […]) was 3(10.3) n (%), the urinary tract infection ([1]; […]) was 3(10.3) n (%) and the urine protein detection ([1]; […]) was 4(13.8) n (%). The “various musculoskeletal and connective tissue diseases (SOC)” value ([1]; […]) was 7(24.1) n (%), the “various neurological diseases (SOC)” value ([1]; […]) was 19(65.5) n (%) and the “vascular and lymphatic diseases (SOC)” value ([1]; […]) was 3(10.3) n (%). For the same molecule, the ventricular hypokinesia ([1]; […]) was 1(3.4) n (%), the vesicular rash ([1]; […]) was 1(3.4) n (%) and the vomit ([1]; […]) was 15(51.7) n (%). For the same molecule, the weakness ([1]; […]) was 14(48.3) n (%), the “ST segment abnormalities on ECG” value ([1]; […], second line of this term) was 1(3.4) n (%) and the hypermagnesemia ([1]; […], second line of this term) was 2(6.9) n (%). The “Grade ≥3 lymphopenia” value ([1]; all doses, N = 29) was 31.0%, the “Grade ≥3 thrombocytopenia” value ([1]; all doses, N = 29) was 75.9% and the Solubility (Solubility of the API; 0.1 mol/L hydrochloric acid solution) was “practically insoluble”. For the same molecule, the Solubility (Solubility of the API; 0.1 mol/L sodium hydroxide solution) was “very slightly soluble”, the Solubility (Solubility of the API; dimethyl sulfoxide) was “soluble” and the Solubility (Solubility of the API; dimethylformamide) was “slightly soluble”. For the same molecule, the Solubility (Solubility of the API; ethanol, ethyl acetate, or chloroform) was “practically insoluble”, the Solubility (Solubility of the API; methanol) was “very slightly soluble” and the median survival time (mouse B-cell lymphoma; 2.5 mg/kg, solvent control 10.5 days) was 19.5 days. The median survival time (mouse B-cell lymphoma; 5 mg/kg) was 23 days, the median survival time (mouse B-cell lymphoma; 10 mg/kg) was 22.5 days and the IC50 (HDAC4) was 1070 nM. For the same molecule, the mortality ([2]; 3, 10, 30 mg/kg) was “no mortality” and the “highest no serious toxicity dose (HNSTD)” value ([2]; three times a week, four weeks) was 30 mg/kg.
